Data reported in US11591341B2 (ALIGOS THERAPEUTICS, INC., priority 2019, dated 2023).

Tested on: HBV
Assay: HBV-DNA Antiviral Assay Using HepG2.117 Cells (intracellular HBV DNA by qPCR)
Format: cell-based, hepatitis B virus (genotype D)
Details: Hepatitis B virus, HepG2.117
How it was run: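 Endpoint: qPCR copy number of intracellular HBV DNA after 3-day compound exposure, with inhibition set relative to the 2% DMSO control. The cells were doxycycline-free HepG2.117 carrying a Tet-off genotype D genome, dosed at nine 4-fold dilutions. A duplicate plate gave ATP-based viability (CC50).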

How did the EC50 turn out when `COc1ccc(-n2c(-c3ccccc3)c3n(c2=O)CCN(C(=O)c2ccc(Cl)c(Cl)c2)C3)cc1` [Example 74, 7-(3,4-dichlorobenzoyl)-2-(4-methoxyphenyl)-1-phenyl-6,8-dihydro-5H-imidazo[1,5-a]pyrazin-3-one] was run?
Its EC50 is > 5 µM.

`CC(C)Oc1ccc(-n2c(C(=O)NCc3ccc(C#N)cc3F)c3n(c2=O)CCN(C(=O)c2ccc(Br)c(Cl)c2)C3)cc1` [Example 212, 7-(4-bromo-3-chloro-benzoyl)-N-[(4-cyano-2-fluoro-phenyl)methyl]-2-(4-isopropoxyphenyl)-3-oxo-6,8-dihydro-5H-imidazo[1,5-a]pyrazine-1-carboxamide] was tested. Which EC50 did it give?
Its EC50 is 0.1 to 0.5 µM.

For `COc1ccc(-n2c(C(=O)NC(C(N)=O)c3ccccc3)c3n(c2=O)CCN(C(=O)c2ccc(Br)c(Cl)c2)C3)cc1` (racemic) [Example 206, 7-(4-bromo-3-chloro-benzoyl)-2-(4-methoxyphenyl)-3-oxo-N-[rac-(1R)-2-amino-2-oxo-1-phenyl-ethyl]-6,8-dihydro-5H-imidazo[1,5-a]pyrazine-1-carboxamide], which EC50 is on record?
The EC50 was > 5 µM.

How did the EC50 turn out when `COc1ccc(-n2c(C(=O)N[C@H](C)C3CC3)c3n(c2=O)CCN(C(=O)c2ccc(Cl)c(Cl)c2)C3)cc1` (racemic) [Example 95, 7-(3,4-dichlorobenzoyl)-2-(4-methoxyphenyl)-3-oxo-N-[rac-(1R)-1-cyclopropylethyl]-6,8-dihydro-5H-imidazo[1,5-a]pyrazine-1-carboxamide] was run?
The EC50 was > 5 µM.

Which EC50 does the source give for `Cc1ccn(-c2ccc(-n3c(C(=O)NCc4ccccc4)c4n(c3=O)CCN(C(=O)c3ccc(Br)c(Cl)c3)C4)cc2)n1` [Example 455, N-benzyl-7-(4-bromo-3-chloro-benzoyl)-2-[4-(3-methylpyrazol-1-yl)phenyl]-3-oxo-6,8-dihydro-5H-imidazo[1,5-a]pyrazine-1-carboxamide] here?
Its EC50 is 0.1 to 0.5 µM.

How did the EC50 turn out when `NS(=O)(=O)c1ccc(-n2c(C(=O)NCc3ccccc3)c3n(c2=O)CCN(C(=O)c2ccc(Br)c(Cl)c2)C3)cc1` [Example 71, N-benzyl-7-(4-bromo-3-chloro-benzoyl)-3-oxo-2-(4-sulfamoylphenyl)-6,8-dihydro-5H-imidazo[1,5-a]pyrazine-1-carboxamide] was run?
Its EC50 is > 5 µM.

`COc1ccc(-n2c(C(=O)NC3(CO)CC3)c3n(c2=O)CCN(C(=O)c2ccc(Cl)c(Cl)c2)C3)cc1` [Example 106, 7-(3,4-dichlorobenzoyl)-N-[1-(hydroxymethyl)cyclopropyl]-2-(4-methoxyphenyl)-3-oxo-6,8-dihydro-5H-imidazo[1,5-a]pyrazine-1-carboxamide] was tested. Which EC50 did it give?
The EC50 was > 5 µM.

Which EC50 does the source give for `C[C@H](NC(=O)c1c2n(c(=O)n1-c1ccc(OC3CC3)cc1)CCN(C(=O)c1ccc(Br)c(Cl)c1)C2)c1ccc(OC2COC2)cc1F` (stereo in doubt) [Example 347, 7-(4-bromo-3-chloro-benzoyl)-2-[4-(cyclopropoxy)phenyl]-3-oxo-N-[rac-(1S)-1-[2-fluoro-4-(oxetan-3-yloxy)phenyl]ethyl]-6,8-dihydro-5H-imidazo[1,5-a]pyrazine-1-carboxamide] here?
Its EC50 is 0.1 to 0.5 µM.

With `C[C@@H](NC(=O)c1c2n(c(=O)n1-c1ccc(OCC(F)(F)F)cc1)CCN(C(=O)c1ccc(Br)c(Cl)c1)C2)c1ccc(OC(F)(F)F)cc1F` (racemic) [Example 292, 7-(4-bromo-3-chloro-benzoyl)-3-oxo-N-[rac-(1R)-1-[2-fluoro-4-(trifluoromethoxy)phenyl]ethyl]-2-[4-(2,2,2-trifluoroethoxy)phenyl]-6,8-dihydro-5H-imidazo[1,5-a]pyrazine-1-carboxamide] as the compound, how does the EC50 read?
The EC50 was 0.5 to 5 µM.

`C[C@H](Oc1ccc([C@@H](C)NC(=O)c2c3n(c(=O)n2-c2ccc(OC4CC4)cc2)CCN(C(=O)c2ccc(Br)c(Cl)c2)C3)c(F)c1)C(N)=O` (stereo in doubt) [Example 356, 7-(4-bromo-3-chloro-benzoyl)-2-[4-(cyclopropoxy)phenyl]-3-oxo-N-[rac-(1R)-1-[2-fluoro-4-[rac-(1S)-2-amino-1-methyl-2-oxo-ethoxy]phenyl]ethyl]-6,8-dihydro-5H-imidazo[1,5-a]pyrazine-1-carboxamide] was tested. Which EC50 did it give?
Its EC50 is 0.1 to 0.5 µM.

Which EC50 does the source give for `COc1ccc(-n2c(-c3ccccn3)c3n(c2=O)CCN(C(=O)c2ccc(Br)c(Cl)c2)C3)cc1` [Example 275, 7-(4-bromo-3-chloro-benzoyl)-2-(4-methoxyphenyl)-1-(2-pyridyl)-6,8-dihydro-5H-imidazo[1,5-a]pyrazin-3-one] here?
The EC50 was > 5 µM.

Which EC50 does the source give for `COC1CCC(n2c(C(=O)N[C@H](C)c3ccccc3)c3n(c2=O)CCN(C(=O)c2ccc(Br)c(Cl)c2)C3)CC1` (mixture of isomers) [Example 254, 7-(4-bromo-3-chloro-benzoyl)-2-(4-methoxycyclohexyl)-3-oxo-N-[rac-(1R)-1-phenylethyl]-6,8-dihydro-5H-imidazo[1,5-a]pyrazine-1-carboxamide] here?
Its EC50 is > 5 µM.

Which EC50 does the source give for `COc1ccc(-n2c(C(=O)NCc3ccccc3OC)c3n(c2=O)CCN(C(=O)c2ccc(Br)c(Cl)c2)C3)cc1` [Example 114, 7-(4-bromo-3-chloro-benzoyl)-2-(4-methoxyphenyl)-N-[(2-methoxyphenyl)methyl]-3-oxo-6,8-dihydro-5H-imidazo[1,5-a]pyrazine-1-carboxamide] here?
The EC50 was 0.1 to 0.5 µM.

Which EC50 does the source give for `COc1ccc(-n2c(C(=O)NCc3ccc4occc4c3)c3n(c2=O)CCN(C(=O)c2ccc(Cl)c(Cl)c2)C3)cc1` [Example 66, N-(benzofuran-5-ylmethyl)-7-(3,4-dichlorobenzoyl)-2-(4-methoxyphenyl)-3-oxo-6,8-dihydro-5H-imidazo[1,5-a]pyrazine-1-carboxamide] here?
Its EC50 is 0.5 to 5 µM.

How did the EC50 turn out when `O=C(NCc1ccccc1)c1c2n(c(=O)n1-c1ncccn1)CCN(C(=O)c1ccc(Cl)c(Cl)c1)C2` [Example 138, N-benzyl-7-(3,4-dichlorobenzoyl)-3-oxo-2-pyrimidin-2-yl-6,8-dihydro-5H-imidazo[1,5-a]pyrazine-1-carboxamide] was run?
The EC50 was > 5 µM.

`Cc1c(C(=O)N2CCn3c(c(C(=O)NCc4ccccc4)n(-c4ccc(OC5CC5)cc4)c3=O)C2)ccc(Br)c1Cl` [Example 462, N-benzyl-7-(4-bromo-3-chloro-2-methyl-benzoyl)-2-[4-(cyclopropoxy)phenyl]-3-oxo-6,8-dihydro-5H-imidazo[1,5-a]pyrazine-1-carboxamide] was tested. Which EC50 did it give?
Its EC50 is 0.5 to 5 µM.

How did the EC50 turn out when `COc1ccc(CNC(=O)c2c3n(c(=O)n2-c2ccc(OC(C)C)cc2)CCN(C(=O)c2ccc(Br)c(Cl)c2)C3)c(OC)c1` [Example 228, 7-(4-bromo-3-chloro-benzoyl)-N-[(2,4-dimethoxypehnyl)methyl]-2-(4-isopropoxyphenyl)-3-oxo-6,8-dihydro-5H-imidazo[1,5-a]pyrazine-1-carboxamide] was run?
Its EC50 is 0.1 to 0.5 µM.

Which EC50 does the source give for `COc1ccc(-n2c(C(=O)NCc3ccc(Cl)cc3)c3n(c2=O)CCN(C(=O)c2ccc(Br)c(Cl)c2)C3)cc1` [Example 139, 7-(4-bromo-3-chloro-benozyl)-N-[(4-chlorophenyl)methyl]-2-(4-methoxyphenyl)-3-oxo-6,8-dihydro-5H-imidazo[1,5-a]pyrazine-1-carboxamide] here?
Its EC50 is 0.1 to 0.5 µM.

How did the EC50 turn out when `COc1cc2occc2cc1CNC(=O)c1c2n(c(=O)n1-c1ccc(OC(C)C)cc1)CCN(C(=O)c1ccc(Br)c(Cl)c1)C2` [Example 255, 7-(4-bromo-3-chloro-benzoyl)-2-(4-isopropoxyphenyl)-N-[(6-methoxybenzofuran-5-yl)methyl]-3-oxo-6,8-dihydro-5H-imidazo[1,5-a]pyrazine-1-carboxamide] was run?
Its EC50 is 0.1 to 0.5 µM.

With `COc1ccc(CN2C[C@H](O)Cn3c(c4n(c3=O)CCN(C(=O)c3ccc(Br)c(Cl)c3)C4)C2=O)cc1` (stereo in doubt) [Example 194, rac-(11S)-4-(4-bromo-3-chloro-benzoyl)-11-hydroxy-13-[(4-methoxyphenyl)methyl]-4,7,9,13-tetrazatricyclo[7.5.0.0^2,7]tetradec-1-ene-8,14-dione] as the compound, how does the EC50 read?
The EC50 was 0.1 to 0.5 µM.

With `C[C@@H](NC(=O)c1c2n(c(=O)n1C)CCN(C(=O)c1ccc(Br)c(Cl)c1)C2)c1ccccc1` (stereo in doubt) [Example 113, 7-(4-bromo-3-chloro-benzoyl)-2-methyl-3-oxo-N-[rac-(1R)-1-phenylethyl]-6,8-dihydro-5H-imidazo[1,5-a]pyrazine-1-carboxamide] as the compound, how does the EC50 read?
Its EC50 is 0.5 to 5 µM.

`CC(C)Oc1ccc(-n2c(C(=O)NCc3ccccc3)c3n(c2=O)CCN(C(=O)c2ccc(Br)nc2)C3)cc1` [Example 223, N-benzyl-7-(6-bromopyridine-3-carbonyl)-2-(4-isopropoxyphenyl)-3-oxo-6,8-dihydro-5H-imidazo[1,5-a]pyrazine-1-carboxamide] was tested. Which EC50 did it give?
Its EC50 is > 5 µM.

Which EC50 does the source give for `C[C@H](NC(=O)c1c2n(c(=O)n1-c1ccc(OC3CC3)cc1)CCN(C(=O)c1ccc(Br)c(Cl)c1)C2)c1ccc(OC(C)(C)C(N)=O)cc1F` (stereo in doubt) [Example 338, 7-(4-bromo-3-chloro-benzoyl)-2-[4-(cyclopropoxy)phenyl]-3-oxo-N-[rac-(1S)-1-[4-(2-amino-1,1-dimethyl-2-oxo-ethoxy)-2-fluoro-phenyl]ethyl]-6,8-dihydro-5H-imidazo[1,5-a]pyrazine-1-carboxamide] here?
Its EC50 is 0.1 to 0.5 µM.

`CC(C)Oc1ccc(-n2c(C(=O)NCc3ccc(S(C)(=O)=O)cc3)c3n(c2=O)CCN(C(=O)c2ccc(Br)c(Cl)c2)C3)cc1` [Example 227, 7-(4-bromo-3-chloro-benzoyl)-2-(4-isopropoxypehnyl)-N-[(4-methylsulfonylphenyl)methyl]-3-oxo-6,8-dihydro-5H-imidazo[1,5-a]pyrazine-1-carboxamide] was tested. Which EC50 did it give?
The EC50 was 0.5 to 5 µM.

`O=C(c1ccc(Br)c(Cl)c1)N1CCn2c(c3n(c2=O)C[C@H](F)CN(Cc2ccccc2)C3=O)C1` (stereo in doubt) [Example 200, rac-(11R)-13-benzyl-4-(4-bromo-3-chloro-benzoyl)-11-fluoro-4,7,9,13-tetrazatricyclo[7.5.0.0^2,7]tetradec-1-ene-8,14-dione] was tested. Which EC50 did it give?
The EC50 was 0.1 to 0.5 µM.

Which EC50 does the source give for `O=C(NCc1ccccc1-c1ncco1)c1c2n(c(=O)n1-c1ccc(OC3CC3)cc1)CCN(C(=O)c1ccc(Br)c(Cl)c1)C2` [Example 366, 7-(4-bromo-3-chloro-benzoyl)-2-[4-(cyclopropoxy)phenyl]-N-[(2-oxazol-2-ylphenyl)methyl]-3-oxo-6,8-dihydro-5H-imidazo[1,5-a]pyrazine-1-carboxamide] here?
The EC50 was < 0.1 µM.
